US20090280153A1, “electrical devices, anti-scarring agents, and therapeutic compositions” (Angiotech International AG, priority 2005, published 2009)
pIC50: −log10 of the molar value. Like-named read-outs stand apart in the source and are kept apart here.

Tests used:
[1] = test system: fibroblasts and/or smooth muscle cells, macrophages; experiment: assays described herein (in vitro screening assays for anti-fibrosis agents); format: cell-based; settings: approximately, read-out: IC50 range in the assays described herein
Description: Agents which may inhibit fibrosis or gliosis may be readily identified based upon in vitro and in vivo (animal) models, such as those provided in Examples 39-52. Depending on their mechanisms, various agents may be effective in some, but not all screening assays for anti-fibrosis or anti-gliosis agents, and different agents may be effective in different screening assays. Agents which inhibit fibrosis can be identified through in vivo models including inhibition of intimal hyperplasia development in the rat balloon carotid artery model (Examples 44 and 61). The assays set forth in Examples 43 and 51 may be used to determine whether an agent is able to inhibit cell proliferation in fibroblasts and/or smooth muscle cells. In one aspect of the invention, the agent has an IC50 for inhibition of cell proliferation within a range of about 10^−6 to about 10^−10 M. In certain embodiments, the agent may have an IC50 for inhibition of cell proliferation of less than about 10,000 nM; or less than about 1000 nM; or less than about 100 nM. The assay set forth in Example 47 may be used to determine whether an agent may inhibit migration of fibroblasts and/or smooth muscle cells. In one aspect of the invention, the agent has an IC50 for inhibition of cell migration within a range of about 10^−6 to about 10^−9M. In certain embodiments, the agent may have an IC50 for inhibition of fibroblast or smooth muscle cell migration of less than about 10,000 nM; or less than about 1000 nM; or less than about 100 nM. Assays set forth herein may be used to determine whether an agent is able to inhibit inflammatory processes, including nitric oxide production in macrophages (Example 39), and/or TNF-alpha production by macrophages (Example 40), and/or IL-1 beta production by macrophages (Example 48), and/or IL-8 production by macrophages (Example 49), and/or inhibition of MCP-1 by macrophages (Example 50). In one aspect of the invention, the agent has an IC50 for inhibition of any one of these inflammatory processes within a range of about 10^−6 to about 10^−10M. In certain embodiments, the agent may have an IC50 for any one of these inflammatory processes of less than about 10,000 nM; or less than about 1000 nM; or less than about 100 nM. The assay set forth in Example 45 may be used to determine whether an agent is able to inhibit MMP production. In one aspect of the invention, the agent has an IC50 for inhibition of MMP production within a range of about 10^−4 to about 10^−8M. In certain embodiments, the agent may have an IC50 for inhibition of MMP production of less than about 10,000 nM; or less than about 1000 nM; or less than about 100 nM. The assay set forth in Example 46 (also known as the CAM assay) may be used to determine whether an agent is able to inhibit angiogenesis. In one aspect of the invention, the agent has an IC50 for inhibition of angiogenesis within a range of about 10^−6 to about 10^−10M. In certain embodiments, the agent may have an IC50 for inhibition of angiogenesis of less than about 10,000 nM; or less than about 1000 nM; or less than about 100 nM. The assay set forth in Example 52 may be used to determine whether an agent is able to inhibit MMP-1. In one aspect of the invention, the agent has an IC50 for inhibition of MMP-1 within a range of about 10^−6 to about 10^−10M. In certain embodiments, the agent may have an IC50 for inhibition of MMP-1 of less than about 10,000 nM; or less than about 1000 nM; or less than about 100 nM. Agents which reduce the formation of surgical adhesions may be identified through in vivo models including the rabbit surgical adhesions model (Example 42) and the rat caecal sidewall model (Example 41). […]

bacteria and fungi = settings: surface drug concentration is to exceed this value; cited from earlier work
AP-1 = experiment: IL-1 induced AP-1 binding activity in chondrocyte lysates (FIG. 4C); format: cell-based; settings: chondrocytes pretreated with paclitaxel
[2] = test system: collagenase and stromelysin; experiment: IL-1 induced collagenase and stromelysin expression in chondrocytes (FIGS. 4D, 5A-H); format: cell-based; settings: pretreatment with paclitaxel; FIG. 4D
[3] = high potency (1-100) or mid-potency (100-500) agents

Question: With Nc1ncn([C@@H]2O[C@H](CO)[C@@H](O)[C@H]2O)c(=O)n1 [5-azacytidine] as the compound, how does the pIC50 ([1]; low potency agents) read?
Answer: 6.00 to 6.30

Question: Which “concentration known to be lethal to bacteria and fungi” value (“concentration known to be lethal” for short) (bacteria and fungi) does the source give for O=c1[nH]cc(F)c(=O)[nH]1 [5-fluorouracil, 5-Fluorouracil] here?
Answer: 10^−4 M

Question: With CN(C)C[C@@H]1CCn2cc(c3ccccc32)C2=C(C(=O)NC2=O)c2cn(c3ccccc23)CCO1 [Ly333531 (ruboxistaurin), ruboxistaurin] as the compound, how does the pIC50 ([1]; low potency agents) read?
Answer: 6.00 to 6.30

Question: With COCc1c(C(C)C)nc(C(C)C)c(/C=C/[C@@H](O)C[C@@H](O)CC(=O)O)c1-c1ccc(F)cc1 [cerivastatin] as the compound, how does the pIC50 [1, 3] read?
Answer: 7.00 to 9.00

Question: With Nc1nc(Cl)nc2c1ncn2[C@H]1C[C@H](O)[C@@H](CO)O1 [cladribine] as the compound, how does the pIC50 [1, 3] read?
Answer: 6.30 to 7.00

Question: With CCC(=O)O[C@]1(C(=O)CCl)[C@@H](C)C[C@H]2[C@@H]3CCC4=CC(=O)C=C[C@]4(C)[C@@]3(F)[C@@H](O)C[C@@]21C [clobetasol propionate] as the compound, how does the pIC50 [1, 3] read?
Answer: 7.00 to 9.00

Question: For COc1cccc2c1C(=O)c1c(O)c3c(c(O)c1C2=O)C[C@@](O)(C(=O)CO)C[C@@H]3O[C@H]1C[C@H](N)[C@H](O)[C@H](C)O1 [doxorubicin, Doxorubicin], which “concentration known to be lethal” value (bacteria and fungi) is on record?
Answer: 10^−4 M

Question: Which “concentration known to be lethal” value (bacteria and fungi) does the source give for COc1cc([C@@H]2c3cc4c(cc3[C@@H](O[C@@H]3O[C@@H]5CO[C@@H](C)O[C@H]5[C@H](O)[C@H]3O)[C@H]3COC(=O)[C@H]23)OCO4)cc(OC)c1O [etoposide, Etoposide] here?
Answer: 10^−5 M

Question: With COC(=O)C[C@](O)(CCCC(C)(C)O)C(=O)O[C@@H]1C(OC)=C[C@]23CCCN2CCc2cc4c(cc2[C@H]13)OCO4 [homoharringtonine] as the compound, how does the pIC50 [1, 3] read?
Answer: 7.00 to 9.00

Question: With CC1=C(/C=C/C(C)=C/C=C/C(C)=C\C(=O)O)C(C)(C)CCC1 [isotretinoin] as the compound, how does the pIC50 [1, 3] read?
Answer: 7.00 to 9.00

Question: With O=C1C=CC(=O)c2c(O)cccc21 [juglone] as the compound, how does the pIC50 [1, 3] read?
Answer: 6.30 to 7.00

Question: With CCOC(=O)O[C@]1(C(=O)OCCl)CC[C@H]2[C@@H]3CCC4=CC(=O)C=C[C@]4(C)[C@H]3[C@@H](O)C[C@@]21C [loteprednol etabonate] as the compound, how does the pIC50 [1, 3] read?
Answer: 6.30 to 7.00

Question: With O=C[C@@H](O)[C@@H](O)[C@H](O)[C@H](O)COP(=O)(O)O [mannose-6-phosphate] as the compound, how does the pIC50 [1, 3] read?
Answer: 6.30 to 7.00

Question: Which “concentration known to be lethal” value (bacteria and fungi) does the source give for O=C1c2c(O)ccc(O)c2C(=O)c2c(NCCNCCO)ccc(NCCNCCO)c21 [mitoxantrone] here?
Answer: 10^−5 M

Question: With CC(=O)O[C@H]1C(=O)[C@@]2(C)[C@H]([C@H](OC(=O)c3ccccc3)[C@]3(O)C[C@H](OC(=O)[C@H](O)[C@@H](NC(=O)c4ccccc4)c4ccccc4)C(C)=C1C3(C)C)[C@]1(OC(C)=O)CO[C@@H]1C[C@@H]2O [paclitaxel] as the compound, how does the “IL-1 induced binding activity in lysates from chondrocytes” value (AP-1) read?
Answer: decreased

Question: And the “IL-1 induction of collagenase and stromelysin RNA levels in chondrocytes” value [2]?
Answer: inhibited

Question: With Cc1ccc(=O)n(-c2ccccc2)c1 [pirfenidone] as the compound, how does the pIC50 [1, 3] read?
Answer: 7.00 to 9.00

Question: With C[C@]12C=CC(=O)C=C1CC[C@@H]1[C@@H]2[C@@H](O)C[C@@]2(C)[C@H]1CC[C@]2(O)C(=O)CO [prednisolone] as the compound, how does the pIC50 [1, 3] read?
Answer: 6.30 to 7.00

Question: With COc1ccc(C[C@H](N)C(=O)N[C@H]2[C@@H](O)[C@H](n3cnc4c(N(C)C)ncnc43)O[C@@H]2CO)cc1 [puromycin] as the compound, how does the pIC50 [1, 3] read?
Answer: 6.30 to 7.00

Question: With C[C@@H]1C[C@H]2O[C@@H]2/C=C\C=C\C(=O)Cc2c(Cl)c(O)cc(O)c2C(=O)O1 [radicicol] as the compound, how does the pIC50 [1, 3] read?
Answer: 7.00 to 9.00

Question: With CCC(C)(C)C(=O)O[C@H]1C[C@@H](C)C=C2C=C[C@H](C)[C@H](CC[C@@H]3C[C@@H](O)CC(=O)O3)[C@H]21 [simvastatin] as the compound, how does the pIC50 ([1]; low potency agents) read?
Answer: 6.00 to 6.30

Question: With C=CC[C@@H]1/C=C(\C)C[C@H](C)C[C@H](OC)[C@H]2O[C@@](O)(C(=O)C(=O)N3CCCC[C@H]3C(=O)O[C@H](/C(C)=C/[C@@H]3CC[C@@H](O)[C@H](OC)C3)[C@H](C)[C@@H](O)CC1=O)[C@H](C)C[C@@H]2OC [tacrolimus] as the compound, how does the pIC50 [1, 3] read?
Answer: 7.00 to 9.00

Question: With C/C=C(/C)C(=O)O[C@H]1C(C)=C2[C@H]([C@@H]1OC(=O)CCCCCCC)[C@@](C)(OC(C)=O)C[C@H](OC(=O)CCC)[C@@]1(O)[C@H]2OC(=O)[C@@]1(C)O [thapsigargin] as the compound, how does the pIC50 [1, 3] read?
Answer: 7.00 to 9.00

Question: With CCC1=C[C@@H]2CN(C1)Cc1c([nH]c3ccccc13)[C@@](C(=O)OC)(c1cc3c(cc1OC)N(C)[C@H]1[C@@](O)(C(=O)OC)[C@H](OC(C)=O)[C@]4(CC)C=CCN5CC[C@]31[C@@H]54)C2 [vinorelbine] as the compound, how does the pIC50 [1, 3] read?
Answer: 7.00 to 9.00
